Experiment [1] relates to Enterococcus faecalis. In words: Antibacterial activity against Enterococcus faecalis ATCC 29212 after 18 hrs by broth microdilution method. The class given is functional. To be noted: ATCC 29212, 18 h. In general terms: In broth dilution the organism is exposed to a series of concentrations in liquid medium.
Experiment [2] deals with Pseudomonas aeruginosa. In words: Growth inhibition of Pseudomonas aeruginosa ATCC 27853 at 50 uM after 24 hrs by broth microdilution method relative to control. The class given is functional. To be noted: ATCC 27853, 24 h, read-out: GI.
The test system of experiment [3] is Escherichia coli. As to the kind of experiment: Growth inhibition of tolC deficient Escherichia coli JW5503 at 50 uM after 24 hrs by broth microdilution method relative to control. The class given is functional. The following applies: JW5503, 24 h, read-out: GI.
The subject of experiment [4] is Escherichia coli. In words: Growth inhibition of lpxC deficient Escherichia coli JD17464 at 50 uM after 24 hrs by broth microdilution method relative to control. The class given is functional. To be noted: JD17464, 24 h, read-out: GI.
Experiment [5] concerns Enterococcus faecalis. In words: Growth inhibition of Enterococcus faecalis ATCC 29212 at 50 uM after 24 hrs by broth microdilution method relative to control. The class given is functional. To be noted: ATCC 29212, 24 h, read-out: GI.
Experiment [6] relates to Escherichia coli. In words: Growth inhibition of Escherichia coli ATCC 25922 at 50 uM after 24 hrs by broth microdilution method relative to control. The class given is functional. To be noted: ATCC 25922, 24 h, read-out: GI.
Experiment [7] concerns Staphylococcus aureus. As to the kind of experiment: Growth inhibition of Staphylococcus aureus ATCC 25923 at 50 uM after 24 hrs by broth microdilution method relative to control. The class given is functional. To be noted: ATCC 25923, 24 h, read-out: GI.
Experiment [8] has as its target DNA gyrase subunit B (Escherichia coli, UniProt P0AES6). As to the kind of experiment: Inhibition of Escherichia coli DNA gyrase by supercoiling assay.
Experiment [9] can be described thus: Inhibition of Staphylococcus aureus topoisomerase-4 assessed as residual activity preincubated for 10 mins followed by ATP addition measured after 30 mins by purine nucleoside phosphorylase enzyme coupled spectrophotometric method.
Experiment [10] deals with DNA gyrase subunit B (Staphylococcus aureus, UniProt P0A0K8). As to the kind of experiment: Inhibition of Staphylococcus aureus DNA gyrase B preincubated for 10 mins followed by ATP addition measured after 30 mins by purine nucleoside phosphorylase enzyme coupled spectrophotometric method.
Experiment [11] in a line: Inhibition of Escherichia coli C-terminal His6-tagged topoisomerase-4 expressed in Escherichia coli BL21(DE3) preincubated for 10 mins followed by ATP addition measured after 30 mins by purine nucleoside phosphorylase enzyme coupled spectrophotometric method.
For experiment [12], the system named is Staphylococcus aureus. In words: Inhibition of Staphylococcus aureus topoisomerase-4 assessed as residual activity at 1 uM preincubated for 10 mins followed by ATP addition measured after 30 mins by purine nucleoside phosphorylase enzyme coupled spectrophotometric method relative to control.

In general, MIC90 refers to the lowest concentration that inhibits either 90% of growth or 90% of the strains tested, depending on the study. Low readings indicate greater potency, high ones weaker potency. Broadly, the IC50 is the point on the concentration scale where inhibition reaches its midpoint.

The structures appear in SMILES notation. ≈ marks a conversion by molar mass, not a printed value. Some results are limits rather than exact numbers.

Chain of DNA gyrase subunit B (Staphylococcus aureus, UniProt P0A0K8) (P0A0K8 whole entry): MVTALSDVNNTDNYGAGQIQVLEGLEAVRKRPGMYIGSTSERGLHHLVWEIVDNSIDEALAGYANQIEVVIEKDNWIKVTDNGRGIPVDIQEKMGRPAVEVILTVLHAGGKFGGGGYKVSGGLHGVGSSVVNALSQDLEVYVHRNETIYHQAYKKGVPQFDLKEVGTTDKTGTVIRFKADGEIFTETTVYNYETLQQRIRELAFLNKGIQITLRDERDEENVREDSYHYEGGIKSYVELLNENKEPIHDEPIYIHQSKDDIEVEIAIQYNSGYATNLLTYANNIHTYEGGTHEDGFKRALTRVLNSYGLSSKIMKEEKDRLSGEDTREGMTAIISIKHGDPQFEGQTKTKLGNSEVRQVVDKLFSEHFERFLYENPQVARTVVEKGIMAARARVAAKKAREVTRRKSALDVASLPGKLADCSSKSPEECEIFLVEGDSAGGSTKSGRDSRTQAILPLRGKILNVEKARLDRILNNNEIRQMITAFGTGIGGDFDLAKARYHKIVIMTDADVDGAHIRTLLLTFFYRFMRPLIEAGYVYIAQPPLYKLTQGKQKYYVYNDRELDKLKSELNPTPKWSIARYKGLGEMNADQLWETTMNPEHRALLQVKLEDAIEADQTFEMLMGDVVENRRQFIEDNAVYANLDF

`Cc1[nH]c(C(=O)Nc2ccc(C(=O)N[C@@H](C)c3n[nH]c(=O)o3)cc2OCCNC(=O)OC(C)(C)C)c(Cl)c1Cl` displayed an MIC90 in [1] of 100 µM (≈ 58.3 µg/mL). For the same molecule, the inhibition of growth at 50 µM in experiment [2] was 31%; in experiment [3], -5%; in experiment [4], 2%; in experiment [5] it was 86%; in experiment [6], -1%; in experiment [7] it was 3%. In [8], this molecule showed an IC50 of 1600 nM.
In the case of `Cc1[nH]c(C(=O)Nc2ccc(C(=O)N[C@@H](C)C(=O)NN)cc2OCCNC(=O)OC(C)(C)C)c(Cl)c1Cl`, the inhibition of growth at 50 µM in experiment [2] came out at 12%; in [3], 13%; in experiment [4], 19%; in experiment [5] it was 64%; in experiment [6], 5%; in experiment [7], 7%.
As for `Cc1[nH]c(C(=O)Nc2ccc(C(=O)NCC(=O)O)c(OC(C)C)c2)c(Cl)c1Cl`, the IC50 in experiment [9] came out at 12000 nM; in [10], 140 nM; in experiment [8], 91 nM. Also, the inhibition of growth at 50 µM in experiment [2] was 11%; in experiment [5], 75%; in experiment [6], 12%; in experiment [7], -9%.
For `Cc1[nH]c(C(=O)Nc2ccc(C(=O)N[C@@H](Cc3ccccc3)C(=O)O)cc2OC(C)C)c(Cl)c1Cl`, in experiment [1], the MIC90 amounted to 3.13 µM (≈ 1.62 µg/mL). Besides, the inhibition of growth at 50 µM is 4% in experiment [2]; 8% in experiment [3]; 1% in experiment [4]; 99% in [5]; -2% in [6]; -57% in [7].
As to `COC(=O)[C@@H](NC(=O)c1ccc(NC(=O)c2cc(Br)c(Br)[nH]2)c(OC(C)C)c1)C(C)C`, the inhibition of growth at 50 µM was 6% in experiment [2]; -9% in experiment [3]; 22% in experiment [4]; 59% in experiment [5]; 13% in [6]; 33% in experiment [7].
On to `NCCOc1cc(C(=O)NCC(=O)O)ccc1NC(=O)c1cc(Br)c(Br)[nH]1`, for which the inhibition of growth at 50 µM in experiment [2] was 11%; in experiment [3], -8%; in experiment [4], -5%; in experiment [5], 0%; in experiment [6] it was 0%; in experiment [7], -2%.
For `Cc1[nH]c(C(=O)Nc2ccc(C(=O)N[C@@H](C)C(=O)O)cc2OCCN)c(Cl)c1Cl`, the IC50 worked out at 3200 nM in [9], 110 nM in experiment [10], 530 nM in [11] and 28 nM in [8]. The inhibition of growth at 50 µM in [2] was 10%; in experiment [3], -4%; in experiment [4] it was 5%; in experiment [5], 36%; in experiment [6], 4%; in experiment [7], 17%.
Regarding `CC(C)Oc1cc(C(=O)N[C@H](C(=O)O)C(C)C)ccc1NC(=O)c1cc(Br)c(Br)[nH]1`, the MIC90 in [1] is > 75 µM. In addition, the inhibition of growth at 50 µM in experiment [2] was 11%; in experiment [3], 18%; in experiment [4], -1%; in experiment [5], 80%; in experiment [6] it was -2%; in [7] it was -13%.
With `Cc1[nH]c(C(=O)Nc2ccc(C(=O)N[C@@H](C)C(=O)O)cc2OCCNC(=O)OC(C)(C)C)c(Cl)c1Cl`, in experiment [12], the Activity worked out at 99%. The inhibition of growth at 50 µM in experiment [2] was 5%; in experiment [3] it was 11%; in experiment [4], 14%; in experiment [5], -1%; in experiment [6] it was 5%; in experiment [7] it was -11%. Also, the results for the half-inhibitory concentration (IC50) in experiment [10] and in experiment [8] were 1300 nM and 590 nM, respectively.
On to `CC(C)(C)OC(=O)NCCOc1cc(C(=O)NCC(=O)O)ccc1NC(=O)c1cc(Br)c(Br)[nH]1`, for which the inhibition of growth at 50 µM in experiment [2] is 9%; in experiment [3], 5%; in [4], -2%; in experiment [5], 1%; in [6], 2%; in experiment [7], 7%.
Turning to `COC(=O)CNC(=O)c1ccc(NC(=O)c2[nH]c(C)c(Cl)c2Cl)cc1OC(C)C`, the inhibition of growth at 50 µM in experiment [2] is -5%; in experiment [5], 44%; in experiment [6], 6%; in experiment [7], -5%.
`Cc1[nH]c(C(=O)Nc2ccc(C(=O)N[C@@H](C)C(=O)NN)cc2OC(C)C)c(Cl)c1Cl`: the Activity in [12] was determined as 92%. Moreover, the MIC90 in experiment [1] is 6.25 µM (≈ 2.85 µg/mL). In addition, the inhibition of growth at 50 µM in experiment [2] was 9%; in experiment [3] it was 7%; in [4], 3%; in experiment [5], 99%; in [6], 7%; in experiment [7], 5%. In addition, the IC50 stood at 22000 nM in experiment [10] and 280 nM in [8].
With `Cc1[nH]c(C(=O)Nc2ccc(C(=O)N[C@H](C)C(=O)O)cc2OC(C)C)c(Cl)c1Cl`, the IC50 in experiment [9] worked out at 1300 nM; in [10] it was 1600 nM; in [11], 7400 nM; in experiment [8] it was 41 nM. This molecule gave an MIC90 in experiment [1] of 6.25 µM (≈ 2.76 µg/mL). Also, the inhibition of growth at 50 µM in experiment [2] is -1%; in experiment [3], 52%; in [4], 5%; in experiment [5], 101%; in [6], 4%; in experiment [7], 59%.
On to `COC(=O)[C@H](C)NC(=O)c1ccc(NC(=O)c2[nH]c(C)c(Cl)c2Cl)c(OC(C)C)c1`, for which the inhibition of growth at 50 µM in experiment [2] is 8%; in experiment [3], -12%; in experiment [4] it was 6%; in experiment [5] it was 57%; in experiment [6], 0%; in [7] it was -45%.
Turning to `COC(=O)[C@H](Cc1ccccc1)NC(=O)c1ccc(NC(=O)c2[nH]c(C)c(Cl)c2Cl)c(OC(C)C)c1`, the inhibition of growth at 50 µM in experiment [2] is 6%; in experiment [3], -5%; in [4], 25%; in experiment [5], 74%; in [6], 13%; in experiment [7], -3%.
On to `COC(=O)[C@@H](C)NC(=O)c1ccc(NC(=O)c2[nH]c(C)c(Cl)c2Cl)c(OC(C)C)c1`, for which the inhibition of growth at 50 µM in experiment [2] is 5%; in experiment [3], 11%; in [4] it was 27%; in experiment [5], -41%; in experiment [6] it was 12%; in experiment [7], 29%.
On to `CN(C)CCOc1cc(NC(=O)c2cc(Br)c(Br)[nH]2)ccc1C(=O)NCC(=O)O`, for which the inhibition of growth at 50 µM in [2] was 4%; in experiment [5], 14%; in experiment [6] it was 7%; in experiment [7] it was 28%.

The record behind these values is ChEMBL document CHEMBL4152269, “New N-phenylpyrrolamide DNA gyrase B inhibitors: Optimization of efficacy and antibacterial activity” (Eur J Med Chem, 2018).
